{
  "source": "patent US20160295854A1",
  "about": "“COMPOSITION AND METHOD FOR EX-VIVO IMMUNOMODULATION AND/OR PRESERVATION OF ORGANS, METHODS AND USE” (UNIAO BRASILEIRA DE EDUCACAO E ASSISTENCIA , MANTENEDORA DA …, priority 2014, published 2016)",
  "type_in_all_cases": "cell-based, mice (Mus musculus)",
  "key": {"STAT3": {"test_system": "STAT3", "assay": "p-STAT3 intracellular marking in BMDCs", "conditions": "30 μg/ml, 45 minutes after the stimulus", "method": "As positive control, the cells were stimulated with […] of phorbol myristate acetate (PMA) for 30 minutes. After the stimuli in the periods mentioned, the cells were fixed with Cytofix Buffer (BD Biosciences) for 10 minutes at 37° C. and permeated with Phosflow Perm Buffer III (BD Biosciences) for 30 minutes on ice. After such procedures, the cells were marked for p-ERK1/2 and p-STAT3.\nFor analyzing the recipients T cells, the cells were marked for CD4 (GK1.5), CD8a (53-6.7), Foxp3 (MF23), Ki67 (B56) achieved from BD Biosciences. […] The levels of phosphorylated ERK and STAT3 were determined using antibodies for p-ERK1/2 and p-STAT3 (BD Biosciences) in BMDCs previously fixed and permeablized. The cells were subsequently analyzed in the flow cytometer FACSCanto II (BD Biosciences) with the BD FACSDiva (BD Biosciences) program. The data achieved were analyzed with the Flowjo program (version 7.6.5, Tree Star).\nThe p-ERK expression was measured by flow cytometry. […] The p-STAT3 expression was measured by flow cytometry. […] After that, the IL-10 mRNA levels were measured by Real-time PCR and the concentration of this cytokine by flow cytometry, using the kit CBA Mouse Inflammation. […] After that, the MARCH-I mRNA levels were analyzed by Real-time PCR. […]"}, "MHC II": {"test_system": "MHC II", "assay": "MHC II expression in LPS-activated BMDCs", "conditions": "BMDCs treated or not with LPS 24 h, then treated or not with Hsp70 for additional 24 h"}, "CD86": {"test_system": "CD86", "conditions": "BMDCs treated or not with LPS 24 h, then treated or not with Hsp70 for additional 24 h"}, "ERK": {"test_system": "ERK", "assay": "p-ERK intracellular marking in BMDCs"}},
  "data": [
    {"substance": "Hsp70: recombinant Mycobacterium tuberculosis Hsp70 (DnaK) produced in Escherichia coli BL21, LPS removed", "values": [
      {"measurement": "STAT3 phosphorylation in BMDCs (FIG. 13 C)", "setting": "STAT3", "result": "induced the phosphorylation STAT3"},
      {"measurement": "percentage of CD11c+ I-Ab^hi cells (FIG. 4)", "setting": "MHC II", "result": "revert partially"},
      {"measurement": "percentage of CD11c+ CD86^hi cells (FIG. 5)", "setting": "CD86", "result": "revert partially"},
      {"measurement": "p-ERK levels in BMDCs (FIG. 13 A)", "setting": "ERK; 30 μg/ml, after 15 minutes of stimulus, WT", "result": "increase in the phosphor ERK levels"},
      {"measurement": "p-ERK levels in TLR2 KO BMDCs (FIG. 13 B)", "setting": "ERK; TLR2 KO BMDCs, 15 minutes", "result": "increase was not noted"}
    ]}
  ]
}
